Measurements from ChEMBL document CHEMBL3425483, “Synthesis, characterization, hypoglycemic and aldose reductase inhibition activity of arylsulfonylspiro[fluorene-9,5'-imidazolidine]-2',4'-diones” (Eur J Med Chem, 2015).
Calls of active or inactive are those of the source. No cut-off for these calls is given here.

Columns and labels:
[1] = molecular target: Aldo-keto reductase family 1 member A1 (Bos taurus, UniProt Q3ZCJ2); experiment: Inhibition of ALR1 in calf kidney using sodium D-glucoronate as substrate treated with compound for 10 mins prior to substrate addition by UV spectrophotometer analysis
[2] = molecular target: Aldo-keto reductase family 1 member B1 (Bos taurus, UniProt P16116); experiment: Inhibition of ALR2 in calf lenses using DL-glyceraldehyde as substrate treated with compound for 10 mins prior to substrate addition by UV spectrophotometer analysis; design: species or system Lens of camera-type eye
[3] = Retardation factor of the compound using petroleum ether/ethylacetate (6:4) as solvent system by TLC; format: physicochemical
[4] = test system: Mus musculus; experiment: In-vivo hypoglycemic activity in alloxan-pretreated diabetic BALB/c mouse assessed as blood glucose level after 2 hrs by glucometer analysis (reference value: 239.0 to 444.4 mg/dl); format: functional
[5] = test system: Mus musculus; experiment: In-vivo hypoglycemic activity in alloxan-pretreated diabetic BALB/c mouse assessed as blood glucose level after 8 hrs by glucometer analysis (reference value: 239.0 to 444.4 mg/dl); format: functional
[6] = organism: Bos taurus; experiment: Selectivity index, ratio of IC50 for ALR1 in calf kidney to IC50 for ALR2 in calf lenses; format: tissue-based; settings: Lens of camera-type eye
[7] = test system: Mus musculus; experiment: In-vivo hypoglycemic activity in alloxan-pretreated diabetic BALB/c mouse assessed as blood glucose level after 4 hrs by glucometer analysis (reference value: 239.0 to 444.4 mg/dl); format: functional
[8] = test system: Mus musculus; experiment: In-vivo hypoglycemic activity in alloxan-pretreated diabetic BALB/c mouse assessed as blood glucose level after 6 hrs by glucometer analysis (reference value: 239.0 to 444.4 mg/dl); format: functional
[9] = test system: Mus musculus; experiment: In-vivo hypoglycemic activity in alloxan-pretreated diabetic BALB/c mouse assessed as decrease in blood glucose level after 8 hrs by glucometer analysis; format: functional
[10] = test system: aldehyde reductase (ALR1), Bos taurus; experiment: Inhibition of ALR1 in calf kidney using sodium D-glucoronate as substrate at 0.6 mM treated with compound for 10 mins prior to substrate addition by UV spectrophotometer analysis
[11] = molecular target: Aldo-keto reductase family 1 member B1 (Bos taurus) (UniProt P16116); experiment: Uncompetitive inhibition of ALR2 in calf lenses using DL-glyceraldehyde as substrate at 20 uM by Lineweaver-Burk plot analysis; settings: Lens of camera-type eye
[12] = molecular target: Aldo-keto reductase family 1 member B1 (Bos taurus) (UniProt P16116); experiment: Inhibition of ALR2 in calf lenses using DL-glyceraldehyde as substrate at 0.6 mM treated with compound for 10 mins prior to substrate addition by UV spectrophotometer analysis; settings: Lens of camera-type eye
[13] = test system: Mus musculus; experiment: In-vivo hypoglycemic activity in alloxan-pretreated diabetic BALB/c mouse assessed as blood glucose level at 10 mg/kg after 8 hrs by glucometer analysis; format: functional
[14] = test system: Mus musculus; experiment: In-vivo hypoglycemic activity in alloxan-pretreated diabetic BALB/c mouse assessed as blood glucose level at 10 mg/kg after 4 hrs by glucometer analysis (reference value: 385.2 +/- 8.94 mg/dl); format: functional
[15] = test system: Mus musculus; experiment: In-vivo hypoglycemic activity in alloxan-pretreated diabetic BALB/c mouse assessed as blood glucose level at 10 mg/kg after 6 hrs by glucometer analysis (reference value: 385.2 +/- 8.94 mg/dl); format: functional
[16] = test system: Mus musculus; experiment: In-vivo hypoglycemic activity in alloxan-pretreated diabetic BALB/c mouse assessed as blood glucose level at 10 mg/kg after 2 hrs by glucometer analysis (reference value: 385.2 +/- 8.94 mg/dl); format: functional
[17] = test system: Mus musculus; experiment: In-vivo hypoglycemic activity in alloxan-pretreated diabetic BALB/c mouse assessed as blood glucose level at 10 mg/kg after 8 hrs by glucometer analysis (reference value: 385.2 +/- 8.94 mg/dl); format: functional

Aldo-keto reductase family 1 member A1, sequence (Q3ZCJ2 2-325 limits assumed): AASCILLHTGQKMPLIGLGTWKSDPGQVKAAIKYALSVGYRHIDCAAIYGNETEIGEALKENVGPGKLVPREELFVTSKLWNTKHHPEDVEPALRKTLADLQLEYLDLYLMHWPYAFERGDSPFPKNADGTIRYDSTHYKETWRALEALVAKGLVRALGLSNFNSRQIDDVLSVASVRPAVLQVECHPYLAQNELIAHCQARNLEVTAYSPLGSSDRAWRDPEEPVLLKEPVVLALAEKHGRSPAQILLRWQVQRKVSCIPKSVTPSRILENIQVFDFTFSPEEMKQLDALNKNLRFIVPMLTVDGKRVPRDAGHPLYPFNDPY

| SMILES | IC50 [1] [µM] | IC50 [2] [µM] | Rf [3] | inhibition [10] [%] | inhibition [11] | inhibition [12] [%] | Activity [4] [mg/dL] | Activity [5] [mg/dL] | Ratio IC50 [6] | Activity [7] [mg/dL] | Activity [8] [mg/dL] | inhibition (INH) [9] [%] | inhibition in vivo at 10 mg/kg [13] [%] | Activity [14] [mg/dL] | Activity [15] [mg/dL] | Activity [16] [mg/dL] | Activity [17] [mg/dL] |
| --- | --- | --- | --- | --- | --- | --- | --- | --- | --- | --- | --- | --- | --- | --- | --- | --- | --- |
| O=C1c2ccccc2C(=O)c2cc(S(=O)(=O)N3C(=O)NC(=O)C34c3ccccc3-c3ccccc34)ccc21 | 20.3 | 10.3 | 0.44 | – | – | – | 467 | 544.6 | 1.97 | 500 | 522.2 | – | – | – | – | – | – |
| O=C1NC(=O)C2(c3ccccc3-c3ccccc32)N1S(=O)(=O)c1ccc(Br)cc1 | 11.5 | 3.86 | 0.33 | – | – | – | 217 | 72.8 | 2.97 | 168 | 115.8 | 70.55 | – | – | – | – | – |
| O=C1c2ccccc2C(=O)c2cc(S(=O)(=O)N3C(=O)NC4(C3=O)c3ccccc3-c3ccccc34)ccc21 | – | 11.3 | 0.47 | 44.9 | – | – | 305.8 | 442.6 | 2.41 | 336.4 | 400.4 | – | – | – | – | – | – |
| COc1ccc(S(=O)(=O)N2C(=O)NC(=O)C23c2ccccc2-c2ccccc23)cc1 | 13.9 | 5.8 | 0.43 | – | – | – | 275.6 | 129 | 2.39 | 205.6 | 143.6 | 66.38 | – | – | – | – | – |
| O=C1NC2(C(=O)N1S(=O)(=O)c1ccc(Br)cc1)c1ccccc1-c1ccccc12 | – | 5.37 | 0.31 | 52 | – | – | 266.5 | 63.5 | 9.68 | 297.2 | 339.5 | 73.72 | – | – | – | – | – |
| O=C1NC(=O)C2(c3ccccc3-c3ccccc32)N1S(=O)(=O)c1ccc2ccccc2c1 | 12.5 | 27.3 | 0.41 | – | – | – | 271.2 | 135 | 0.45 | 197.3 | 138.5 | 64.13 | – | – | – | – | – |
| O=C1NC2(C(=O)N1S(=O)(=O)c1ccc3ccccc3c1)c1ccccc1-c1ccccc12 | – | – | 0.44 | 47.9 | – | 52 | 277 | 108.6 | – | 206 | 123 | 66.44 | – | – | – | – | – |
| O=C1NC(=O)C2(c3ccccc3-c3ccccc32)N1S(=O)(=O)c1ccc([N+](=O)[O-])cc1 | 12.3 | 7.88 | 0.31 | – | – | – | 226.6 | 138.2 | – | 189.4 | 176.8 | 62.86 | – | – | – | – | – |
| COc1ccc(Cl)cc1C(=O)NCCc1ccc(S(=O)(=O)NC(=O)NC2CCCCC2)cc1 [GLYBURIDE] | – | – | – | – | – | – | – | – | – | – | – | – | 60.9 | 229.3 | 170.7 | 289.1 | 150.5 |

More lines, main results first:

| IC50 [1] [µM] | IC50 [2] [µM] | Rf [3] | inhibition [10] [%] | inhibition [11] | inhibition [12] [%] | SMILES | Activity [4] [mg/dL] | Activity [5] [mg/dL] | Ratio IC50 [6] | Activity [7] [mg/dL] | Activity [8] [mg/dL] | inhibition (INH) [9] [%] | inhibition in vivo at 10 mg/kg [13] [%] | Activity [14] [mg/dL] | Activity [15] [mg/dL] | Activity [16] [mg/dL] | Activity [17] [mg/dL] |
| --- | --- | --- | --- | --- | --- | --- | --- | --- | --- | --- | --- | --- | --- | --- | --- | --- | --- |
| 3.51 | 1.8 | 0.35 | – | – | – | O=C1NC2(C(=O)N1S(=O)(=O)c1ccc([N+](=O)[O-])cc1)c1ccccc1-c1ccccc12 | 226.6 | 121.8 | 1.95 | 190.4 | 175.2 | 55.25 | – | – | – | – | – |
| 12.1 | 1.72 | 0.2 | – | – | – | O=C1NC(=O)C2(c3ccccc3-c3ccccc32)N1S(=O)(=O)c1ccc(Cl)cc1 | 259.8 | 355 | 9.68 | 289 | 323.4 | – | – | – | – | – | – |
| 8.8 | 2.29 | 0.25 | – | – | – | Cc1ccc(S(=O)(=O)N2C(=O)NC(=O)C23c2ccccc2-c2ccccc23)cc1 | 286.2 | 116.2 | 3.84 | 239.4 | 152.2 | 61.67 | – | – | – | – | – |
| 5.15 | 2.84 | 0.27 | – | – | – | Cc1ccc(S(=O)(=O)N2C(=O)NC3(C2=O)c2ccccc2-c2ccccc23)cc1 | 229.3 | 123.6 | 1.81 | 180 | 146.6 | 48.28 | – | – | – | – | – |
| 26.1 | 1.02 | 0.42 | – | – | – | COc1ccc(S(=O)(=O)N2C(=O)NC3(C2=O)c2ccccc2-c2ccccc23)cc1 | 380.2 | 418.8 | 25.6 | 376 | 402.8 | – | – | – | – | – | – |
| – | 0.89 | 0.31 | 47.9 | Active | – | O=C1NC2(C(=O)N1S(=O)(=O)c1ccc(Cl)cc1)c1ccccc1-c1ccccc12 | 232 | 68 | 53.8 | 160.4 | 78.8 | 72.24 | – | – | – | – | – |
